Test results taken from patent US12419966B2, “In vivo radical-mediated polymerization for targeted delivery of trophic factors” (RUTGERS, THE STATE UNIVERSITY OF NEW JERSEY, priority 2017, dated 2025).

Test system: Rat cortical neurons
Assay: Rat cortical neuron cytotoxicity (MTT)
Type: cell-based
Conditions: above 500 μM
Procedure: Rat Cortical Neuron Culture and Cellular Protection Studies (Cytotoxicity and Protection): Rat cortical neurons were isolated from a timed pregnant animal at embryonic day 18 as described in the literature via techniques commonly employed in the literature. Neurons were cultured in Neurobasal media containing 2% B27 supplement, 1% KCl, 1% penicillin/streptomycin, and 0.5% L-glutamine and seeded into 96 well plates at a density of 100,000 cells/well. […] Cellular metabolic activity was then evaluated using the Vybrant MTT assay (Life Technologies) according to the manufacturer's instructions. […] Metabolic activity was again measured using the MTT assay.
(3-(4,5-dimethylthiazol-2-yl)-2,5-diphenyltetrazolium bromide) (MTT) was added to the cultures at 12 mM and allowed to incubate for 4 hours at 37° C. MTT was metabolized by mitochondrial activity to form an insoluble formazan product. The formazan product was solubilized by the addition of sodium dodecyl sulfate and further incubation for 4 hours. Absorbance measurements at 570 nm were collected to determine the amount of MTT that was metabolized by the culture and viability was reported as a percentage of MTT metabolized by uninjured control cultures.

**Q.** For `O=C1O[C@H]([C@@H](O)CO)C(O)=C1O` [ascorbic acid], which “cellular activity of rat cortical neurons” value is on record?
**A.** decreases observed
